In brackets after ≈: the same amount, converted by molar mass.
Columns and labels:
[1] = tested on: P. aeruginosa ATCC 27853; test: Agar diffusion method, P. aeruginosa; type: cell-based, Pseudomonas aeruginosa; details: Pseudomonas aeruginosa, ATCC27853, 100 µg/well; read-out: Diameter of Zone Inhibition, P. aeruginosa
Experimental: (§1) Elyakov Pacific Institute of Bioorganic Chemistry, Far East Branch, Russian Academy of Sciences. Test substances were dissolved in DMSO at concentrations of 1.0, 0.1, and 0.01 mg/mL. All strains were grown on trypticase-soy agar TSA (BBL) at 37 °C. […] After incubation of the dishes at 37 °C for 24 h (for bacteria) and 48 h (for the fungus) at 28 °C, the diameters of the growth inhibition zones of pathogenic microorganisms (mm) were measured, including the diameter of the wells. Commercial antibacterial drugs (vancomicin and gentamicin) and antifungal (clotrimazol) drugs were used as positive controls.

[2] = tested on: human cervical cancer (HeLa); test: Cytotoxicity, MTT assay, HeLa cells; details: for EC50: Homo sapiens, HeLa, 24 h, read-out: Cytotoxicity (EC50), HeLa; for Selectivity Index (SI), HeLa: SI = EC50 (Jb6 Cl 41-5a normal cells)/EC50 (tumor cells)
[3] = tested on: S. aureus ATCC 21027; test: Agar diffusion method, S. aureus; type: cell-based, Staphylococcus aureus; parameters: key to Diameter of Zone Inhibition, S. aureus: Zones within 20–40 mm mean strong antibiotic activity; zones up to 20 mm—moderate; ≤10 mm—weak; +—insignificant; details: for zone of inhibition at 100 µg/disc / zone of inhibition at 1 µg/disc: Staphylococcus aureus, read-out: Diameter of Zone Inhibition, S. aureus; for zone of inhibition at 100 µg/disc: ATCC21027, 24 h, 100 µg/well, 24 h, incl. 7 mm well; for zone of inhibition at 1 µg/disc: ATCC21027, 1 µg/well
Experimental: as §1

[4] = tested on: mouse neuroblastoma (Neuro 2a); test: Cytotoxicity, MTT assay, Neuro 2a cells; details: for EC50: N2a, 24 h, read-out: Cytotoxicity (EC50), Neuro 2a; for Selectivity Index (SI), Neuro-2a: SI = EC50 (Jb6 Cl 41-5a normal cells)/EC50 (tumor cells)
[5] = tested on: B. cereus ATCC 10702; test: Agar diffusion method, B. cereus; type: cell-based, Bacillus cereus; parameters: key to Diameter of Zone Inhibition, B. cereus: Zones within 20–40 mm mean strong antibiotic activity; zones up to 20 mm—moderate; ≤10 mm—weak; +—insignificant; details: for zone of inhibition at 100 µg/disc / zone of inhibition at 1 µg/disc: Bacillus cereus, read-out: Diameter of Zone Inhibition, B. cereus; for zone of inhibition at 100 µg/disc: ATCC10702, 24 h, 100 µg/well, 24 h, incl. 7 mm well; for zone of inhibition at 1 µg/disc: ATCC10702, 1 µg/well
Experimental: as §1

[6] = tested on: C. albicans KMM 453; test: Agar diffusion method, C. albicans; type: cell-based; details: Candida albicans, KMM453, 48 h, 100 µg/well, 48 h at 28 °C; read-out: Diameter of Zone Inhibition, C. albicans
Experimental: as §1

[7] = Cytotoxicity, MTT assay, Jb6 Cl 41-5a normal epithelial cells; details: mouse, Jb6 Cl 41-5a normal epithelial cells
[8] = tested on: E. coli K-12; test: Agar diffusion method, E. coli; type: cell-based, Escherichia coli; details: Escherichia coli, K12; 100 µg/well; read-out: Diameter of Zone Inhibition, E. coli
Experimental: as §1

[9] = tested on: mouse ascites Ehrlich carcinoma; test: Cytotoxicity, nonspecific esterase (FDA) assay, ascites Ehrlich carcinoma cells; details: for EC50: Mus musculus, Ehrlich, 24 h, read-out: Cytotoxicity (EC50), Ascites Ehrlich Carcinoma; for Selectivity Index (SI), Ascitic Ehrlich Carcinoma: SI = EC50 (Jb6 Cl 41-5a normal cells)/EC50 (tumor cells)
[10] = tested on: S. aureus ATCC 21027; test: Minimum inhibitory concentration, broth microdilution; type: cell-based, Staphylococcus aureus; details: for MIC: Staphylococcus aureus, ATCC21027, broth microdilution, 24 h, read-out: Minimum inhibitory concentration (MIC) against S. aureus
Experimental: Stocks of substances were prepared in DMSO at a concentration of 10 mM. All studied compounds were tested in concentrations from 1.5 μM to 100 μM using twofold dilution. All tested compounds were add to the wells of the plates in a volume of 20 μL diluted in PBS (DMSO concentration < 1%). The bacterial culture of S. aureus ATCC 21027 (Collection of Marine Microorganisms PIBOC FEB RAS) was cultured in a Petri dish at 37 °C for 24 h on solid medium with the following composition; pepton—5.0 g/L, K2HPO4—0.2 g/L, glucose—1.0 g/L, MgSO4—0.05 g/L, yeast extract—1 g/L, agar—16.0 g/L, and distilled water—1.0 L. The pH of the medium was adjusted to 7.2–7.4 with NaOH solution.
The antimicrobial activity of the compounds was determined by the minimum inhibitory concentration (MIC) according to the method adopted by the Clinical and Laboratory Standards Institute (CLSI). Methods for dilution antimicrobial susceptibility tests for bacteria that grow aerobically followed the approved standard—tenth edition. CLSI document M07-A10, PA: Clinical and Laboratory Standards Institute; 2015, with a slight modification of the medium. The assays were performed in 96-well microplates in appropriate broth (pepton—5.0 g/L, K2HPO4—0.2 g/L, glucose—1.0 g/L, MgSO4—0.05 g/L, yeast extract—1 g/L, casein hydrolyzate—2.5 g/L, distilled water—1L). […] The MIC value is defined as the lowest concentration of compounds resulting in the complete inhibition of bacterial growth by measuring the absorbance at 600 nm with a microplate reader (BioTek, Winooski, Vt, USA). All experiments were performed twice in triplicate. Gentamicin was used as a positive control in concentration 1 mg/mL; 1% DMSO solution in PBS as a negative. The selectivity index for S. aureus has been defined as the ratio of EC50 for normal cells and the MIC value for the bacterial culture (SI = EC50/MIC).

[11] = tested on: Gram-positive bacteria (S. aureus, B. cereus); test: Agar diffusion method, Gram-positive strains; type: cell-based, Staphylococcus aureus, Bacillus cereus
Experimental: as §1

Row | melting point | MIC [10] [µM] | Structure (SMILES) | zone of inhibition at 100 µg/disc [1] [mm] | EC50 [2] [µM] | Selectivity Index (SI), HeLa [2] | zone of inhibition at 100 µg/disc [3] [mm] | EC50 [4] [µM] | Selectivity Index (SI), Neuro-2a [4] | zone of inhibition at 100 µg/disc [5] [mm] | zone of inhibition at 100 µg/disc [6] [mm] | EC50 at 24 h [7] [µM] | zone of inhibition at 100 µg/disc [8] [mm] | EC50 [9] [µM] | Selectivity Index (SI), Ascitic Ehrlich Carcinoma [9] | zone of inhibition at 1 µg/disc [3] [mm] | zone of inhibition at 1 µg/disc [5] [mm] | also measured
1 | 348 to 350 °C (dec.) |  | O=C1C2=C(S[C@@H]3OC[C@@H](O)[C@H](O)[C@H]3O2)C(=O)c2c(O)cccc21 [Compound 19c, (3R,4S,4aR,12aS)-3,4,10-Trihydroxy-3,4,4a,12a-tetrahydro-2H-naphtho[2,3-b]pyrano[2,3-e][2,5]oxathiine-6,11-dione] | 0 | 4.9 | 1.2 | 8 ± 1 | 13.3 | 0.4 | 10 ± 2 | 0 | 5.9 | 0 | 7.4 | 0.8 |  |  | 
2 | 274 to 276 °C | 25 (≈ 9.16 µg/mL) | O=C1C2=C(O[C@@H]3[C@@H](O)[C@H](O)[C@@H](CO)O[C@H]3S2)C(=O)c2c(O)cccc21 [Compound 20a, (2R,3S,4S,4aR,12aS)-3,4,7-Trihydroxy-2-(hydroxymethyl)-3,4,4a,12a-tetrahydro-2H-naphtho[2,3-b]pyrano-[2,3-e][2,5]oxathiine-6,11-dione] | 0 | 6.3 | 0.1 | 30 ± 2 | 0.7 | 1 | 22 ± 1 | 0 | 0.7 | 0 | 2.7 | 0.3 | 0 | 0 | 
3 | 293 to 295 °C | 25 (≈ 9.16 µg/mL) | O=C1C2=C(O[C@@H]3[C@@H](O)[C@@H](O)[C@@H](CO)O[C@H]3S2)C(=O)c2c(O)cccc21 [Compound 20b, (2R,3R,4S,4aR,12aS)-3,4,7-Trihydroxy-2-hydroxymethyl-3,4,4a,12a-tetrahydro-2H-naphtho[2,3-b]pyrano[2,3-e][2,5]oxathiine-6,11-dione] | 0 | 4.7 | 0.1 | 30 ± 2 | 1.2 | 0.4 | 20 ± 1 | 0 | 0.5 | 0 | 1.1 | 0.5 | 0 | 0 | 
4 |  | 12.5 (≈ 4.2 µg/mL) | O=C1C2=C(O[C@@H]3[C@@H](O)[C@H](O)CO[C@H]3S2)C(=O)c2c(O)cccc21 [Compound 20c, (3R,4S,4aR,12aS)-3,4,7-Trihydroxy-3,4,4a,12a-tetrahydro-2H-naphtho[2,3-b]pyrano[2,3-e][2,5]oxathiine-6,11-dione] | 0 | 2.3 | 0.1 | 30 ± 2 | 2.2 | 0.1 | 25 ± 1 | 8 ± 1 | 0.3 | 0 | 0.7 | 0.4 |  |  | Selectivity index (SI) against S. aureus ([10]; SI = EC50 (normal Jb6 Cl 41-5a cells)/MIC): 0.02; Diameter of Zone Inhibition, S. aureus ([3]; 1 µg/well): +; Antimicrobial activity / inhibition zone diameter, Gram-positive bacteria ([11]; 10 µg/well): comparable with antibiotics vancomicin and gentamicin; Antimicrobial activity, Gram-positive strains ([11]; dilution to 1 µg/well): residual effect; Diameter of Zone Inhibition, B. cereus ([5]; 1 µg/well): +

Reference: PMC7463537, “Synthesis and Evaluation of Antimicrobial and Cytotoxic Activity of Oxathiine-Fused Quinone-Thioglucoside Conjugates of Substituted 1,4-Naphthoquinones” (Molecules, 2020)
